One assay deals with BJ. Nature of the assay: Cytotoxicity against human BJ cells after 72 hrs by […] CellTiterGlo reagent assay. The format is cell-based. (In general: The colour change of resazurin is a common sign of viable cells or microbes.)
The next assay relates to Raji. Briefly: Cytotoxicity against human Raji cells after 72 hrs by […] CellTiterGlo reagent assay. The format is cell-based.
Assay [1] has as its system Plasmodium falciparum. Briefly: Antimalarial activity against […] incubated for 72 hrs by DNA staining based MARK1 growth inhibition assay. The class given is functional, organism-based.
For the next assay, the system named is HepG2. Nature of the assay: Cytotoxicity against human HepG2 cells after 72 hrs by […] CellTiterGlo reagent assay. The class given is cell-based. The note with it: HepG2, 72 h.
For assay [2], the system named is Plasmodium falciparum. Nature of the assay: Antimalarial activity against chloroquine-sensitive Plasmodium falciparum 3D7 incubated for 72 hrs by DNA staining based MAR3D7 growth inhibition assay. The format is functional, organism-based. The note with it: 3D7, 72 h.
The subject of a further assay is HEK293. Nature of the assay: Cytotoxicity against human HEK293 cells after 72 hrs by […] CellTiterGlo reagent assay. The class given is cell-based. The note with it: HEK293, 72 h.

Regarding `COC(=O)c1cc(-c2cccs2)nc2ccccc12`, the EC50 (usually the concentration at which the effect is half-maximal) in the assay with BJ was above 26 µM; in the assay with Raji, above 26 µM; in the assay on Plasmodium falciparum [1] it was above 15 µM; in the assay on HepG2 it was above 26 µM; in the assay with Plasmodium falciparum [2] it was above 15 µM; with HEK293, above 26 µM.
For `O=C(O)c1cc(-c2ccco2)nc2ccccc12`, the EC50 with BJ is above 26 µM; with Raji, above 26 µM; in the assay with Plasmodium falciparum [1], above 15 µM; with HepG2 it was above 26 µM; with Plasmodium falciparum [2], above 15 µM; in the assay with HEK293 it was above 26 µM.
For `CCOC(=O)CCCCCOc1cccc(C=O)c1`, the EC50 in the assay with BJ was above 26 µM; with Raji it was above 26 µM; in the assay with Plasmodium falciparum [1], above 15 µM; with HepG2, above 26 µM; in the assay on Plasmodium falciparum [2], above 15 µM; in the assay with HEK293, above 26 µM.
Turning to `CCOC(=O)CCCCCOc1ccc(C=O)cc1`, the EC50 with BJ was above 26 µM; with Raji, above 26 µM; with Plasmodium falciparum [1], above 15 µM; in the assay with HepG2, above 26 µM; in the assay on Plasmodium falciparum [2] it was 0.0584 µM; in the assay on HEK293, above 26 µM.
Regarding `CCOC(=O)CCCCCOc1ccc(C(O)O)cc1`, the EC50 in the assay with BJ was above 27.2 µM; with Raji, above 27.2 µM; in the assay on Plasmodium falciparum [1], above 15 µM; in the assay on HepG2, above 27.2 µM; with Plasmodium falciparum [2] it was above 15 µM; with HEK293, above 27.2 µM.
For `CCOC(=O)CCCCCOc1ccc(CO)cc1`, the EC50 is above 27.2 µM in the assay on BJ; above 27.2 µM with Raji; above 15 µM in the assay with Plasmodium falciparum [1]; above 27.2 µM in the assay on HepG2; above 15 µM in the assay on Plasmodium falciparum [2]; above 27.2 µM with HEK293.
Regarding `[N-]=[N+]=NC[C@H](O)c1ccc2c(c1)OCO2`, the EC50 in the assay with BJ was above 13 µM; in the assay with Raji it was above 13 µM; in the assay on Plasmodium falciparum [1], above 7.51 µM; with HepG2, above 13 µM; in the assay with Plasmodium falciparum [2], above 7.51 µM; with HEK293, above 13 µM.
As to `C[C@@H](NC(=O)c1ccc(-c2ccc3c(c2)OCO3)cc1)c1ccccc1`, the EC50 in the assay with BJ is above 26 µM; in the assay on Raji, above 26 µM; in the assay on Plasmodium falciparum [1], above 15 µM; with HepG2 it was above 26 µM; in the assay with Plasmodium falciparum [2] it was above 15 µM; in the assay on HEK293, above 26 µM.
As to `CC(C)N(C(=O)c1ccc(-c2ccc3c(c2)OCO3)cc1)[C@H](C)c1ccccc1`, the EC50 in the assay with BJ is above 26 µM; with Raji, above 26 µM; in the assay with Plasmodium falciparum [1], above 15 µM; in the assay with HepG2, above 26 µM; in the assay with Plasmodium falciparum [2], above 15 µM; in the assay with HEK293, above 26 µM.
In the case of `COc1ccc(C(=O)C(Br)N=[N+]=[N-])cc1OC` (stereo not given), the concentration for a half-maximal effect (EC50) in the assay on BJ was above 13 µM; in the assay with Raji, above 13 µM; in the assay with Plasmodium falciparum [1], above 7.51 µM; in the assay with HepG2, above 13 µM; in the assay with Plasmodium falciparum [2] it was above 7.51 µM; in the assay on HEK293 it was above 13 µM.
With `COc1cc(C)ccc1OCCOc1ccccc1F`, the concentration giving a half-maximal response (EC50) with BJ is above 26 µM; in the assay on Raji it was above 26 µM; in the assay on Plasmodium falciparum [1], above 15 µM; with HepG2, above 26 µM; with Plasmodium falciparum [2], above 15 µM; with HEK293 it was above 26 µM.
`O=C(Nc1ccc2c(c1)OCO2)c1cc(-c2cccs2)nc2ccccc12`: the EC50 with BJ was above 26 µM; in the assay with Raji, above 26 µM; with Plasmodium falciparum [1], above 15 µM; with HepG2, above 26 µM; with Plasmodium falciparum [2], above 15 µM; in the assay on HEK293, above 26 µM.
With `O=C(O)c1cc(-c2cccs2)nc2ccccc12`, the EC50 in the assay with BJ was above 26 µM; in the assay on Raji it was above 26 µM; in the assay with Plasmodium falciparum [1] it was 0.822 µM; in the assay with HepG2, above 26 µM; in the assay with Plasmodium falciparum [2], 0.664 µM; in the assay with HEK293, above 26 µM.
For `COc1ccc(-c2cc(C(=O)O)c3ccccc3n2)cc1OC`, the concentration for a half-maximal effect (EC50) is above 26 µM in the assay on BJ; above 26 µM in the assay on Raji; above 15 µM with Plasmodium falciparum [1]; above 26 µM in the assay on HepG2; above 15 µM in the assay on Plasmodium falciparum [2]; above 26 µM with HEK293.
With `C=CCCN(CCc1ccc(OC)c(OC)c1)C(=O)CC(C)=O`, the concentration for a half-maximal effect (EC50) in the assay with BJ was above 13 µM; in the assay on Raji, above 13 µM; in the assay with Plasmodium falciparum [1], above 7.51 µM; in the assay on HepG2, above 13 µM; with Plasmodium falciparum [2] it was above 7.51 µM; with HEK293 it was above 13 µM.
Take `CCOC(=O)CC(=O)NCCc1ccc(OC)c(OC)c1`: the EC50 in the assay on BJ was above 13 µM; in the assay on Raji, above 13 µM; with Plasmodium falciparum [1] it was above 7.51 µM; in the assay on HepG2, above 13 µM; in the assay with Plasmodium falciparum [2], above 7.51 µM; in the assay on HEK293, above 13 µM.
Regarding `C=CCCC(=O)NCC1(c2ccc3c(c2)OCO3)OCCO1`, the EC50 with BJ was above 13 µM; in the assay with Raji, above 13 µM; with Plasmodium falciparum [1] it was above 7.51 µM; with HepG2 it was above 13 µM; in the assay on Plasmodium falciparum [2], above 7.51 µM; with HEK293 it was above 13 µM.
As to `CCOC(OCC)C(=O)NCCc1ccc(OC)c(OC)c1`, the EC50 in the assay on BJ is above 13 µM; in the assay with Raji, above 13 µM; with Plasmodium falciparum [1], above 7.51 µM; in the assay with HepG2, above 13 µM; with Plasmodium falciparum [2], above 7.51 µM; in the assay on HEK293, above 13 µM.
`COc1ccc(CCNC(=O)CCO[Si](C)(C)C(C)(C)C)cc1OC`: the EC50 in the assay on BJ is above 13 µM; with Raji it was 6.9 µM; in the assay with Plasmodium falciparum [1], above 7.51 µM; in the assay on HepG2, 4.89 µM; with Plasmodium falciparum [2], above 2.58 µM; in the assay on HEK293, above 13 µM.
Take `CCOC(=O)CC(=O)NCC(OCC)(OCC)c1ccc2c(c1)OCO2`: the EC50 was above 13 µM in the assay on BJ; above 13 µM in the assay on Raji; above 7.51 µM in the assay with Plasmodium falciparum [1]; above 13 µM in the assay with HepG2; above 7.51 µM with Plasmodium falciparum [2]; above 13 µM in the assay on HEK293.
`C=CCCC(=O)NC[C@H](O)c1ccc2c(c1)OCO2`: the EC50 was above 13 µM with BJ; above 13 µM in the assay on Raji; above 7.51 µM with Plasmodium falciparum [1]; above 13 µM in the assay on HepG2; above 7.51 µM in the assay with Plasmodium falciparum [2]; above 13 µM in the assay on HEK293.
Regarding `CC(C)(C)OC(=O)NCC(OC(=O)C(O)CO)c1ccc2c(c1)OCO2` (stereo not given), the EC50 with BJ is above 13 µM; with Raji it was above 13 µM; with Plasmodium falciparum [1], above 7.51 µM; in the assay on HepG2 it was above 13 µM; in the assay on Plasmodium falciparum [2], above 7.51 µM; in the assay on HEK293, above 13 µM.
Take `C#CCCC(=O)NCCc1ccc(OC)c(OC)c1`: the EC50 in the assay with BJ is above 13 µM; with Raji, above 13 µM; in the assay with Plasmodium falciparum [1] it was above 7.51 µM; in the assay on HepG2, above 13 µM; in the assay on Plasmodium falciparum [2], above 7.51 µM; in the assay with HEK293, above 13 µM.
Turning to `C=CCCC1=NCC(O[Si](C)(C)C(C)(C)C)c2cc(OC)c(OC)cc21` (stereo not given), the EC50 in the assay on BJ was above 13 µM; in the assay on Raji, above 13 µM; in the assay with Plasmodium falciparum [1], 3.06 µM; in the assay on HepG2 it was above 13 µM; with Plasmodium falciparum [2], 2.95 µM; in the assay on HEK293, above 13 µM.
On to `COC(=O)CCCC1=NCCc2cc(OC)c(OC)cc21`, for which the EC50 was above 13 µM in the assay on BJ; above 13 µM in the assay on Raji; above 7.51 µM with Plasmodium falciparum [1]; above 13 µM in the assay on HepG2; above 7.51 µM in the assay on Plasmodium falciparum [2]; above 13 µM with HEK293.
As for `COc1ccc(CCNC(=O)CCCCC(C)=O)cc1OC`, the EC50 with BJ is above 13 µM; in the assay on Raji it was above 13 µM; in the assay with Plasmodium falciparum [1] it was above 7.51 µM; in the assay with HepG2, above 13 µM; in the assay with Plasmodium falciparum [2], above 7.51 µM; in the assay on HEK293, above 13 µM.
Regarding `C=CCCC1=NCCc2cc(OC)c(OC)cc21`, the EC50 in the assay on BJ was above 13 µM; in the assay on Raji, above 13 µM; in the assay with Plasmodium falciparum [1] it was above 7.51 µM; in the assay with HepG2, above 13 µM; in the assay on Plasmodium falciparum [2] it was above 7.51 µM; with HEK293, above 13 µM.
In the case of `COc1cc2c(cc1OC)C(CC1(C)OCCO1)=NCC2`, the EC50 is above 13 µM with BJ; above 13 µM in the assay on Raji; above 7.51 µM in the assay with Plasmodium falciparum [1]; above 13 µM in the assay with HepG2; above 7.51 µM in the assay with Plasmodium falciparum [2]; above 13 µM with HEK293.
Take `CCOC(=O)/C=C1\NCCc2cc3c(cc21)OCO3`: the EC50 in the assay with BJ is above 13 µM; with Raji, above 13 µM; in the assay on Plasmodium falciparum [1] it was above 7.51 µM; with HepG2, above 13 µM; in the assay with Plasmodium falciparum [2], above 7.51 µM; in the assay with HEK293 it was above 13 µM.
Turning to `C=CCCC1=NCC(OC(C)=O)c2cc(OC)c(OC)cc21` (stereo not given), the EC50 was above 13 µM in the assay with BJ; above 13 µM in the assay with Raji; above 7.51 µM in the assay on Plasmodium falciparum [1]; above 13 µM with HepG2; above 7.51 µM in the assay on Plasmodium falciparum [2]; above 13 µM with HEK293.
As to `COc1cc2c(cc1OC)C1(CC=CCC1)N(C(C)=O)CC2` (stereo not given), the EC50 with BJ is above 13 µM; in the assay on Raji, above 13 µM; in the assay on Plasmodium falciparum [1] it was above 7.51 µM; in the assay with HepG2, above 13 µM; in the assay on Plasmodium falciparum [2], above 7.51 µM; in the assay on HEK293 it was above 13 µM.
With `CCOC(OCC)C1=NCCc2cc(OC)c(OC)cc21`, the EC50 in the assay on BJ was above 13 µM; in the assay with Raji, above 13 µM; in the assay with Plasmodium falciparum [1] it was above 7.51 µM; with HepG2, above 13 µM; with Plasmodium falciparum [2], above 7.51 µM; with HEK293 it was above 13 µM.
In the case of `CC(C)N(Cc1cccc(OCCCCCC(=O)O)c1)C(=O)c1ccccc1`, the concentration for a half-maximal effect (EC50) was above 26 µM in the assay on BJ; above 26 µM in the assay on Raji; 0.0074 µM with Plasmodium falciparum [1]; above 26 µM in the assay on HepG2; above 15 µM in the assay on Plasmodium falciparum [2]; above 26 µM in the assay on HEK293.
Regarding `CC(C)N(Cc1cccc(OCCCCCC(=O)O)c1)C(=O)c1ccc(-c2ccc3ccccc3c2)cc1`, the EC50 with BJ is above 26 µM; in the assay with Raji it was above 26 µM; with Plasmodium falciparum [1] it was above 15 µM; with HepG2 it was above 26 µM; in the assay on Plasmodium falciparum [2] it was below 0.0004 µM; in the assay with HEK293, above 26 µM.
In the case of `COc1cc2c(cc1OC)C(C)=NCC2`, the EC50 was above 13 µM in the assay on BJ; above 13 µM in the assay on Raji; above 7.51 µM in the assay with Plasmodium falciparum [1]; above 13 µM in the assay with HepG2; above 7.51 µM with Plasmodium falciparum [2]; above 13 µM in the assay on HEK293.

The record behind these values is ChEMBL document CHEMBL2046380, “Synthesis and structure-activity relationship of disubstituted benzamides as a novel class of antimalarial agents” (Bioorg Med Chem Lett, 2012).
